Test results from patent US20200113902A1, “COMPOSITIONS AND METHODS FOR TREATING CANCERS WITH COVALENT INHIBITORS OF CYCLIN-DEPENDENT KINASE 7 (CDK7)” (Syros Pharmaceuticals, Inc., priority 2017, published 2020).

Tests used:
[1] = test system: homologous recombination deficiency / carboplatin sensitivity genes in COV318 cells; assay: Nanostring PanCancer Pathways mRNA, COV318; type: cell-based; settings: 50 nM, 16 hours
Method: (§1) Ovarian Cell lines OvCar3, TOV21G, A2780 and COV318 were plated at 500,000 cells/well in a 6-well plate the day before treatment. The next day the cells were treated with vehicle or 50 nM Compound 1 for 0, 6, or 16 hours after which cells were harvested and total RNA collected using RNeasy mini kit (Qiagen). Changes in mRNA between samples were analyzed with Nanostring™ PanCancer Pathways Panels specifically analyzing genes related to homologous recombination deficiency and carboplatin sensitivity (ie. BRCA1, BRCA2, Rad51, ATM, ATR, MSH2, MSH6). Nanostring signal intensities were first normalized to housekeeping genes across all cell lines, and then normalized to the 0 hour timepoint within a cell line.

[2] = test system: BR5010 xenografts; assay: TNBC patient-derived xenograft BR5010, tumor volume; type: in vivo, mouse; settings: 40 mg/kg or 30 mg/kg i.v. BIW
Method: (§2) Patient-derived xenograft (PDX) models from TNBC patients (BR5010, BR5013, BR5015, and BR5023) were established in NOD-SCID mice at Crown Bioscience (San Diego, USA). Cryo vials containing tumor cells were thawed and prepared for injection into mice. Cells were washed in PBS, counted, and resuspended in cold PBS at a concentration of 50,000-100,000 viable cells/100 ul. Cell suspensions were mixed with an equal volume of Cultrex ECM and kept on ice during transport to the vivarium. Cells were prepared for injections by withdrawing ECM-Cell mixture into a chilled slip-tip syringe fitted with a 26G 7/8 (0.5 mm×22 mm) needle. The filled syringes were kept on ice to avoid the solidification of ECM. Each mouse was inoculated subcutaneously in the right flank with 200 uL of the cell suspension. Tumor sizes were measured in two dimensions using a caliper, and the volumes were expressed in mm^3 using the formula: V=0.5 a×b^2, where a and b are the longest and shortest diameters of the tumor, respectively. Compound 1 treatment was started when the average tumor size reached 150-200 mm^3.
(§3) Compound 1 was formulated in w/v 20% Captisol (pH 4-6) and administered by i.v. twice weekly (BIW) at a final dose of 40 mg/kg or 30 mg/kg in a 10 ml/kg volume. Tumor volumes were measured twice weekly over the course of the study. […]

[3] = test system: MCL1 protein in HCC70 cells; assay: Western blot of BCL2 family proteins, HCC70; type: cell-based, human; settings: 50 nM or 100 nM, 24 hours
Method: Cytotoxic cancer cell lines HCC70 and TOV21G, and cytostatic cancer cell lines T47D and COV318 were seeded in wells of a six-well dish at a density of 1×10^6 cells/well and allowed to adhere overnight. Cells were then treated with 50 nM of Compound 1 for 16 or 24 hours, or with DMSO (0 hours) representing a negative control. Cells were harvested and placed on ice, and resuspended in RIPA lysis buffer supplemented with protease and phosphatase inhibitors. Clarified lysates prepared with 4×LSD running buffer and boiled at 95° C. for 5 minutes. Equivalent amounts of sample (10 μg total protein) were run on a 4-12% Bis-Tris gel and transferred to a PDVF membrane for Western blotting using standard Western blotting protocols. Membranes were blocked with Licor TBS blocking buffer then probed with antibodies for BCL-XL, BCL-2, MCL1, BID, and GAPDH visualized using and Odyssey imager (FIGS. 23A and 23D).
In a similar experiment, TNBC breast cancer cell lines HCC70, MDAMB468, MDAMB453 and CAL-120 were grown as described above and treated with DMSO, 50 nM Compound 1 or 100 nM Compound 1 for 24 hours. Protein samples were prepared as described above for Western blotting using antibodies specific for the indicated proteins in FIG. 29A. […]

[4] = test system: BR5015 xenografts; assay: TNBC patient-derived xenograft BR5015, tumor volume; type: in vivo, mouse; settings: 40 mg/kg or 30 mg/kg i.v. BIW
Method: as §2, §3

[5] = test system: homologous recombination deficiency / carboplatin sensitivity genes in A2780 cells; assay: Nanostring PanCancer Pathways mRNA, A2780; type: cell-based; settings: 50 nM, 16 hours
Method: as §1

[6] = test system: OV14702 xenograft; assay: Ovarian PDX OV14702, tumor volume; type: in vivo, mouse; settings: OV14702 (RB1 null); 40 or 30 mg/kg i.v. BIW
Method: as §2, with “from ovarian carcinoma” for “from TNBC”, “patients (OV5387, OV14702, OV14972, OV15398, OV15576, OV15696, OV15612, OV15631)” for “patients (BR5010, BR5013, BR5015, and BR5023)”, “in mm3” for “in mm^3”, “V=0.5 a×b^2” for “V=0.5 a×b^2,”
as §3

SMILES: CN(C)C/C=C/C(=O)Nc1ccc(C(=O)N[C@@]2(C)CCC[C@@H](Nc3ncc(Cl)c(-c4c[nH]c5ccccc45)n3)C2)nc1 [Compound 1, N-((1S,3R)-3-(5-chloro-4-(1H-indol-3-yl)pyrimidin-2-ylamino)-1-methylcyclohexyl)-5-((E)-4-(dimethylamino)but-2-enamido)picolinamide]
- mRNA of genes related to homologous recombination deficiency and carboplatin sensitivity, all genes except Rad51 (BRCA1, BRCA2, ATM, ATR, MSH2, MSH6) [1]: downregulated
- Tumor growth vs untreated historical samples [2]: consistently inhibited tumor growth
- MCL1 protein level (Western blot) [3]: downregulated
- Tumor growth vs untreated historical samples [4]: little inhibitory effect on tumor growth
- mRNA of genes related to homologous recombination deficiency and carboplatin sensitivity, all genes except Rad51 (BRCA1, BRCA2, ATM, ATR, MSH2, MSH6) [5]: downregulated
- Response to treatment (tumor growth) [6]: responded
